Key:
K. pneumoniae = test: ESBL NDP test using cultured strains; assay type: biochemical, Klebsiella pneumoniae; design: key: (+) and (−) referred to color change being, red to yellow or unchanged, respectively; (+) and (−) referred to color change being, red to yellow or unchanged, respectively
Experimental: Strains were isolated on Mueller-Hinton agar (Biorad, Marnes-la-Coquette, France) and incubated at 37° C. for 16 h to 24 h before performing the NDP rapid ESBL test as follows. One calibrated inoculated loop (10 μl) of the tested strain was resuspended in 150 μl of 20 mM Tris-HCl lysis buffer previously distributed in Microbead tubes (Ultraclean Microbial DNA isolation kit Bead Tubes, MO BIO Laboratories, Carlsbad, USA). Mechanical lysis of bacteria was performed by strong agitation of Microbead tubes using a vortex adapter (MO BIO Laboratories) for 30 min at room temperature. This bacterial suspension was centrifuged at 10,000×g at room temperature for 5 min. Thirty μl of the supernatant was mixed in a well of a 96-well tray with 100 μl of a 1 ml solution made of 3 mg of purified cefotaxime sodium salt (Sigma-Aldrich, Saint-Quentin-Fallavier, France) in a pH 7.8 phenol red solution. […]. The phenol red solution was made by taking 2 ml of a concentrated pH 8 phenol solution (made from a mixture of phenol red 0.5% in distilled water) to which 16.6 ml of distilled water was added. The pH value was then adjusted to a 7.8 value by adding drops of a 1 N NaOH solution. Mixture of the phenol red solution and the enzymatic suspension being tested was incubated at 37° C. for 30 min. Similarly, culture extracts were analyzed in wells containing cefotaxime and tazobactam (4 mg/ml). Other concentrations of tazobactam and other ß-lactamase inhibitors were tested giving less clear results (data not shown). […] This definition of test positivity will be applied throughout the study.

E. sakazakii = test: Susceptibility testing, MIC by Etest; assay type: cell-based; settings: overexpressed chromosome-encoded cephalosporinase, n=1
Experimental: (§1) Susceptibility testing was performed by determining MIC values using the Etest® (AB bioMérieux; Solna, Sweden) on Mueller-Hinton agar plates at 37° C. and results were recorded according to US guidelines (CLSI), as updated in 2012 (2). The breakpoints for cefotaxime are susceptible (S)≤1 and resistant (R)≥4 μg/ml, and for ceftazidime S≤4 and R≥16 μg/ml.

S. ficaria = test: Susceptibility testing, MIC by Etest; assay type: cell-based; settings: S. ficaria Wild-type, chromosome-encoded cephalosporinase, n=1
Experimental: as §1

C. brakii = test: Susceptibility testing, MIC by Etest; assay type: cell-based; settings: C. brakii Wild-type, chromosome-encoded cephalosporinase, n=1
Experimental: as §1

K. oxytoca = test: ESBL NDP test using cultured strains; assay type: biochemical, Klebsiella oxytoca; design: key: (+) and (−) referred to color change being, red to yellow or unchanged, respectively; (+) and (−) referred to color change being, red to yellow or unchanged, respectively; settings: K. oxytoca Wild-type penicillinase, n=1
Experimental: Strains were isolated on Mueller-Hinton agar (Biorad, Marnes-la-Coquette, France) and incubated at 37° C. for 16 h to 24 h before performing the NDP rapid ESBL test as follows. One calibrated inoculated loop (10 μl) of the tested strain was resuspended in 150 μl of 20 mM Tris-HCl lysis buffer previously distributed in Microbead tubes (Ultraclean Microbial DNA isolation kit Bead Tubes, MO BIO Laboratories, Carlsbad, USA). Mechanical lysis of bacteria was performed by strong agitation of Microbead tubes using a vortex adapter (MO BIO Laboratories) for 30 min at room temperature. This bacterial suspension was centrifuged at 10,000×g at room temperature for 5 min. Thirty μl of the supernatant was mixed in a well of a 96-well tray with 100 μl of a 1 ml solution made of 3 mg of purified cefotaxime sodium salt (Sigma-Aldrich, Saint-Quentin-Fallavier, France) in a pH 7.8 phenol red solution. […]. The phenol red solution was made by taking 2 ml of a concentrated pH 8 phenol solution (made from a mixture of phenol red 0.5% in distilled water) to which 16.6 ml of distilled water was added. The pH value was then adjusted to a 7.8 value by adding drops of a 1 N NaOH solution. Mixture of the phenol red solution and the enzymatic suspension being tested was incubated at 37° C. for 30 min. Similarly, culture extracts were analyzed in wells containing cefotaxime and tazobactam (4 mg/ml). […]

SMILES: CO/N=C(\C(=O)N[C@@H]1C(=O)N2C(C(=O)O)=C(COC(C)=O)CS[C@H]12)c1csc(N)n1 [CTX, cefotaxime]
- ESBL NDP Test from: Colonies (K. pneumoniae; K. pneumoniae 09.127, SHV-2a): +
- ESBL NDP Test from: Colonies (K. pneumoniae; K. pneumoniae 09.138, TEM-3): +
- ESBL NDP Test from: Colonies (K. pneumoniae; K. pneumoniae 09.158, SHV-12): +
- ESBL NDP Test from: Colonies (K. pneumoniae; K. pneumoniae 09.162, TEM-52): +
- ESBL NDP Test from: Colonies (K. pneumoniae; K. pneumoniae 09.169, TEM-52): +
- ESBL NDP Test from: Colonies (K. pneumoniae; K. pneumoniae 09.181, SHV-2a): +
- ESBL NDP Test from: Colonies (K. pneumoniae; K. pneumoniae 09.190, SHV-2a): −
- ESBL NDP Test from: Colonies (K. pneumoniae; K. pneumoniae 09.200, TEM-3): +
- ESBL NDP Test from: Colonies (K. pneumoniae; K. pneumoniae 09.217, SHV-5): +
- ESBL NDP Test from: Colonies (K. pneumoniae; K. pneumoniae 09.45, SHV-12): +
- ESBL NDP Test from: Colonies (K. pneumoniae; K. pneumoniae 09.60, SHV-5): +
- ESBL NDP Test from: Colonies (K. pneumoniae; K. pneumoniae 09.99, SHV-2a): +
- ESBL NDP Test from: Colonies (K. pneumoniae; K. pneumoniae 10.159, CTX-M-3): +
- ESBL NDP Test from: Colonies (K. pneumoniae; K. pneumoniae ANG, DHA-1): −
- ESBL NDP Test from: Colonies (K. pneumoniae; K. pneumoniae BG 1202 5484, Penicillinase): −
- Test (color change) (K. pneumoniae; K. pneumoniae CTX-M-3, n=1): +
- Test (color change) (K. pneumoniae; K. pneumoniae CTX-M-14, n=3): +
- Test (color change) (K. pneumoniae; K. pneumoniae CTX-M-15, n=28): +
- Test (color change) (K. pneumoniae; K. pneumoniae DHA-1, n=1): −
- Test (color change) (K. pneumoniae; K. pneumoniae DHA-2, n=1): +
- ESBL NDP Test from: Colonies (K. pneumoniae; K. pneumoniae FOR, DHA-2): +
- Test (color change) (K. pneumoniae; K. pneumoniae GES-1, n=1): +
- ESBL NDP Test from: Colonies (K. pneumoniae; K. pneumoniae MEK, CTX-M-15): +
- ESBL NDP Test from: Colonies (K. pneumoniae; K. pneumoniae SHI, CTX-M-15): +
- Test (color change) (K. pneumoniae; K. pneumoniae SHV-2a, n=2): −
- Test (color change) (K. pneumoniae; K. pneumoniae SHV-2a, n=4): +
- Test (color change) (K. pneumoniae; K. pneumoniae SHV-5, n=2): +
- Test (color change) (K. pneumoniae; K. pneumoniae SHV-12, n=1): −
- Test (color change) (K. pneumoniae; K. pneumoniae SHV-12, n=2): +
- Test (color change) (K. pneumoniae; K. pneumoniae SHV-28, n=3): +
- Test (color change) (K. pneumoniae; K. pneumoniae TEM-3, n=3): +
- Test (color change) (K. pneumoniae; K. pneumoniae TEM-52, n=2): +
- Test (color change) (K. pneumoniae; K. pneumoniae Wild-type penicillinase, n=2): −
- MICs range (E. sakazakii): >16 µg/mL
- MICs range (S. ficaria): 0.12 µg/mL
- MICs range (C. brakii): 0.12 µg/mL
- Test (color change) (K. oxytoca): −

Source: patent publication US10793892B2, “Method for detecting the presence of expanded spectrum β-lactamase-producing bacteria in a sample” (INSERM (INSTITUT NATIONAL DE LA SANTE ET DE LA RECHERCHE …, priority 2011, dated 2020)
